pKd: −log10 of the molar value.
How the values were obtained:
CNOT7 = biological target: T1, CNOT7 (Homo sapiens, UniProt Q9UIV1); test: Binding of compounds to CNOT7 by surface plasmon resonance (SPR)
T1 construct: biotin (biotinylated); purchased Ichor Life Sciences
Protocol: Surface plasmon resonance (SPR) was used to evaluate the binding of compounds to CNOT7. Experiments were performed on a Biacore 8K (Cytiva) with a running buffer consisting of 20 mM HEPES pH7.5, 100 mM KCl, 3 mM MgCl2, 1 mM TCEP, 0.05% tween-20, 2% DMSO. Briefly, biotinylated CNOT7 (Ichor Life Sciences) at a concentration of 70 μg/ml was immobilized to a streptavidin coated chip (Cytiva sensor chip SA) for 1200 sec at a flow rate of 5 μl/min (typical immobilization level 7,500 RU). For compound binding experiments, various concentrations of analyte were flowed over the chip with 120 sec association phase, 120 sec dissociation phase, at a flow rate of 30 ul/min and collection rate of 10 Hz. Reference channel subtraction and solvent correction were applied to all sensograms prior to data analysis. Sensograms were fit to 1:1 steady state affinity model. FIGS. 3 and 4 show the binding of exemplary compounds and the AMP control (a known CNOT7 active site binder) at various concentrations to CNOT7.

[1] = biological target: T2, CNOT7-FKBP12(F36V) fusion protein (Homo sapiens, UniProt Q9UIV1); test: Biochemical gel assay: degradation/deadenylation of RNA substrate with immunoprecipitated CNOT7-FKBP12(F36V); design: key to Activity by gel: +: an activity observed as compared to DMSO control; −: no activity observed as compared to DMSO control; details: for Activity by gel: Table 8, degradation of RNA, compared to DMSO control
T2 construct: expressed in transfected cells; host or cells: H1299 cells; anti-HA immunoprecipitation, HA-peptide elution
T2 sequence (Q9UIV1 with tags, fused parts or gaps): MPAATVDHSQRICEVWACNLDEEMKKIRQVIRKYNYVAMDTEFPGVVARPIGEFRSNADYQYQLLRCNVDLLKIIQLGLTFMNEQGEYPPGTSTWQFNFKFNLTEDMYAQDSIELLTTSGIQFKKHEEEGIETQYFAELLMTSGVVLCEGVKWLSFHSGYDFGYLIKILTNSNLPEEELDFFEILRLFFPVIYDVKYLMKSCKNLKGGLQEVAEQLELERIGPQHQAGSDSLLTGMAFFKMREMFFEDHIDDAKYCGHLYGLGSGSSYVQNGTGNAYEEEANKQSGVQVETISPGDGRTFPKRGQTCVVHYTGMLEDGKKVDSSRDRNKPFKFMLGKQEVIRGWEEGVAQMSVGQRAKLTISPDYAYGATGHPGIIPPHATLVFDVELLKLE
From the text: Biochemical reporter systems were generated to evaluate the ability of CNOT7 binding compounds to accelerate the degradation of RNA by CNOT7. […] Generation of the target RNA was described in the previous experiment. […] The bifunctional molecules consist of Compound 1-4 and the following rSM:
which binds to the RNA sequence of AST-X, or the rSM linked to a tag that binds CNOT7-FKBPV. Specifically, the tag is compound AP1867 (CAS NO.: 195514-23-9), a known binder of FKBPV, resulting in the rSM-AP1867tag. The CNOT7-FKBPV is obtained by immunoprecipitation of cell engineered to express CNOT-FKBPV. Specifically, H1299 cells were transfected with plasmid expressing HA-tagged CNOT7-FKBP12(F36V) fusion protein. After 24 hours, cells were pelleted and lysed in the following lysis buffer: 20 mM HEPES pH 7.3, 0.2 mM EGTA, 10% glycerol, 0.1 mM DTT with cOmplete EDTA-free protease inhibitors (Millipore). After freeze-thawing, NaCl was added to a concentration of 400 mM and lysates were pelleted to clear cellular debris. Cleared lysate was adjusted to buffer conditions containing 0.1% NP-40 and 150 mM NaCl before being applied to Pierce Anti-HA magnetic beads (ThermoFisher) at 4° C. for 2-20 hours with end-over-end rotation. After washing, bound protein was competitively eluted with 2 mg/mL HA peptide (ThermoFisher) in activity assay buffer at 4° C. for 2-20 hours. It should be appreciated that this immunoprecipitation protocol will result in tagged CNOT7 that will likely have other components of the CCR4-NOT complex bound as well.
The reactions were incubated at 37° C., with specified timepoints removed from the reaction and combined with 2× formamide RNA loading buffer with 10 mM EDTA before boiling for 3 minutes to quench the reaction. Samples were run on a pre-warmed 15% TBE-Urea polyacrylamide gel at 180V for 90 minutes and then imaged using Cy2 settings on the Azure Biosystems 600 Imaging System. […] It should be noted that the CCR4-NOT complex includes proteins other than CNOT7, for instance CNOT6, that have deadenylation and/or exonuclease activity.
These findings were confirmed in the biochemical assay described above. […] In contrast, literature compounds that are active site binders, compounds A, B and C, structure depicted on the right-hand side, do interfere with the ability of CNOT7 to degrade RNA (See center panel of gel).
Heterobifunctional molecules were generated by conjugating the rSM depicted above, which binds RNA with an AST-X sequence, to AP1867 (a small molecule binder of FKBP12(F36V)), resulting in rSM-AP1867tag. In addition, I-243 was conjugated to the rSM resulting in compounds 1-329 and I-371, depicted in FIG. 17. Fluorescently labeled RNA substrates were refolded in the presence of Mg^2+ and incubated 10, 25, or 50 μM doses of heterobifunctional molecules for 30 minutes at room temperature before the enzymatic reaction was initiated with the elution fraction (containing CNOT7-FKBP12(F36V) fusion protein) from the immunoprecipitation protocol above. The reactions were incubated at 37° C., with specified timepoints removed from the reaction and combined with 2× formamide RNA loading buffer with 10 mM EDTA before boiling for 3 minutes to quench the reaction. Samples were run on a pre-warmed 15% TBE-Urea polyacrylamide gel at 180V for 120 minutes and then imaged using Cy2 settings on the Azure Biosystems 600 Imaging System (See FIGS. 18, 19A and 19B). In addition, for 1-371 and the control rSM-AP1867tag, the disappearance of the full-length substrate band was quantified using ImageJ and plotted over time (FIG. 19B).

[2] = dissociation constant by SPR, Table 7

T1 sequence (Q9UIV1 whole entry): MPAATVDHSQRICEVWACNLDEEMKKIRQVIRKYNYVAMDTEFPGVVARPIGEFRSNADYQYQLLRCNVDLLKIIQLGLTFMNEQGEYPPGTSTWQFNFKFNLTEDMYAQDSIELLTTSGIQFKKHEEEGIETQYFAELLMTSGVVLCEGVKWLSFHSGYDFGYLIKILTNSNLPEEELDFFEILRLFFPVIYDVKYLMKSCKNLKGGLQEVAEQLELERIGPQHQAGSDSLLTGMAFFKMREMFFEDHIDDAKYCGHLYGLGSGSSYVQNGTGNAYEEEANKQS

Structure (SMILES)	pKd (CNOT7; Table 6, dissociation constant for CNOT7 by SPR)	pKd (CNOT7; [2])	Activity by gel [1]	relative potency in biochemical assay ([1]; bait conjugated to rSM (Example 17, FIG. 18))
COc1ccc(C(C)NC(=O)C(COCCOCCOCCc2cn(COc3ccc(NC(=O)Nc4nc(CC(=O)N5CCN(C)CC5)cs4)cc3)nn2)Sc2nc(=O)[nH]cc2C)c(F)c1 (centres unmarked) [Compound I-329]	4.60 to 6.00	4.60 to 6.00	−	more potent
COc1ccc2c(c1)C[C@@H](COCCOCCOCCOCc1cn(CCOc3ccc(NC(=O)Nc4nc(CC(=O)N5CCN(C)CC5)cs4)cc3)nn1)N(C(=O)CSc1nc(=O)[nH]cc1C)C2 [Compound I-338]		< 4.60	−	
COc1ccc2c(c1)C[C@H](COCCOCCOCCOCc1cn(CCOc3ccc(NC(=O)Nc4nc(CC(=O)N5CCN(C)CC5)cs4)cc3)nn1)N(C(=O)CSc1nc(=O)[nH]cc1C)C2 [Compound I-339]		< 4.60	+	
COc1ccc([C@@H](C)NC(=O)[C@@H](COCCOCCOCc2cn(CCOc3ccc(NC(=O)Nc4nc(CC(=O)N5CCN(C)CC5)cs4)cc3)nn2)Sc2nc(=O)[nH]cc2Cl)c(F)c1 [Compound I-372]		4.60 to 6.00	+	
COc1ccc([C@@H](C)NC(=O)[C@H](COCCOCCOCc2cn(CCOc3ccc(NC(=O)Nc4nc(CC(=O)N5CCN(C)CC5)cs4)cc3)nn2)Sc2nc(=O)[nH]cc2Cl)c(F)c1 [Compound I-373]		< 4.60	+	
COc1ccc(C(C)NC(=O)C(CCOCCOCCOCCn2cc(CCc3ccc(NC(=O)Nc4nc(CC(=O)N5CCN(C)CC5)cs4)cc3)nn2)Sc2nc(=O)[nH]cc2C)c(F)c1 (centres unmarked) [Compound I-382]			+	
COc1ccc(C(C)NC(=O)C(CCOCCOCCOCCn2cc(COCCOCCOc3ccc(NC(=O)Nc4nc(CC(=O)N5CCN(C)CC5)cs4)cc3)nn2)Sc2nc(=O)[nH]cc2Cl)c(F)c1 (centres unmarked) [Compound I-395]		4.60 to 6.00	+ (weak)	
COc1ccc([C@@H](C)NC(=O)[C@H](CCOCCOCCOCCn2cc(COCCOCCOCCOCCOc3ccc(NC(=O)Nc4nc(CC(=O)N5CCN(C)CC5)cs4)cc3)nn2)Sc2nc(=O)[nH]cc2Cl)c(F)c1 [Compound I-398]			−	
COc1ccc2c(c1)CC(COCCOCCOCCOCc1cn(CCOc3ccc(NC(=O)Nc4nc(CC(=O)N5CCN(C)CC5)cs4)cc3)nn1)N(C(=O)CSc1nc(=O)[nH]cc1C)C2 (centres unmarked) [Compound I-451]		< 4.60	−	
COc1ccc(CNC(=O)[C@H](COCCOCCOCCn2cc(COCCOCCOc3ccc(NC(=O)Nc4nc(CC(=O)N5CCN(C)CC5)cs4)cc3)nn2)Sc2nc(=O)[nH]cc2C)cc1 [Compound I-469]		4.60 to 6.00	−	
COc1ccc(CNC(=O)[C@@H](COCCOCCOCCn2cc(COCCOCCOc3ccc(NC(=O)Nc4nc(CC(=O)N5CCN(C)CC5)cs4)cc3)nn2)Sc2nc(=O)[nH]cc2C)c(F)c1 [Compound I-473]		4.60 to 6.00	−	
COc1ccc(CNC(=O)[C@H](COCCOCCOCCn2cc(COCCOCCOc3ccc(NC(=O)Nc4nc(CC(=O)N5CCN(C)CC5)cs4)cc3)nn2)Sc2nc(=O)[nH]cc2C)c(F)c1 [Compound I-474]		4.60 to 6.00	−	
COc1ccc(CNC(=O)[C@@H](COCCOCCOCCn2cc(COCCOCCOCCOCCOc3ccc(NC(=O)Nc4nc(CC(=O)N5CCN(C)CC5)cs4)cc3)nn2)Sc2nc(=O)[nH]cc2C)cc1 [Compound I-475]		4.60 to 6.00	−	
COc1ccc(CNC(=O)[C@H](COCCOCCOCCn2cc(COCCOCCOCCOCCOc3ccc(NC(=O)Nc4nc(CC(=O)N5CCN(C)CC5)cs4)cc3)nn2)Sc2nc(=O)[nH]cc2C)cc1 [Compound I-476]		4.60 to 6.00	−	
COc1ccc(CNC(=O)[C@H](COCCOCCOCCn2cc(COCCOCCOCCOCCOc3ccc(NC(=O)Nc4nc(CC(=O)N5CCN(C)CC5)cs4)cc3)nn2)Sc2nc(=O)[nH]cc2C)c(F)c1 [Compound I-478]		4.60 to 6.00	+	
COc1ccc2c(c1)C[C@@H](COCCOCCOCCOCCn1cc(COCCOCCOc3ccc(NC(=O)Nc4nc(CC(=O)N5CCN(C)CC5)cs4)cc3)nn1)C(C(=O)CSc1nc(=O)[nH]cc1C)C2 (some centres unmarked) [Compound I-495]		< 4.60	−	
COc1ccc2c(c1)C[C@@H](COCCOCCOCCOCCn1cc(COCCOCCOCCOCCOc3ccc(NC(=O)Nc4nc(CC(=O)N5CCN(C)CC5)cs4)cc3)nn1)N(C(=O)CSc1nc(=O)[nH]cc1C)C2 [Compound I-497]		< 4.60	+ (weak)	
COc1ccc([C@@H](C)NC(=O)[C@H](CCC(=O)N(C)Cc2cn(CCOc3ccc(NC(=O)Nc4nc(CC(=O)N5CCN(C)CC5)cs4)cc3)nn2)Sc2nc(=O)[nH]cc2C)c(F)c1 [Compound I-505]			−	
COc1ccc([C@@H](C)NC(=O)[C@@H](CCC(=O)N(C)Cc2cn(CCOc3ccc(NC(=O)Nc4nc(CC(=O)N5CCN(C)CC5)cs4)cc3)nn2)Sc2nc(=O)[nH]cc2C)c(F)c1 [Compound I-506]			−	
COc1ccc(C(C)NC(=O)C(CCC(=O)N(C)c2cccc(OCCOc3ccc(NC(=O)Nc4nc(CC(=O)N5CCN(C)CC5)cs4)cc3)c2)Sc2nc(=O)[nH]cc2C)c(F)c1 (centres unmarked) [Compound I-515]			−	
Cc1c[nH]c(=O)nc1SCC(=O)NCc1ccc(OCCOCCOCCOCCn2cc(COc3ccc(NC(=O)Nc4nc(CC(=O)N5CCN(C)CC5)cs4)cc3)nn2)cc1 [Compound I-533]			−	
